Earlier results as cited in patent US11596657B2, “Use of AhR agonist for the preventive or curative treatment of metabolic syndrome and the associated disorders” (INSTITUT NATIONAL DE LA RECHERCHE AGRONOMIQUE, priority 2016, dated 2023).

Columns and labels:
human AhR = biological target: T1, human AhR (Homo sapiens, UniProt P35869); settings: potency compared with TCDD
T1 sequence (P35869 11-848): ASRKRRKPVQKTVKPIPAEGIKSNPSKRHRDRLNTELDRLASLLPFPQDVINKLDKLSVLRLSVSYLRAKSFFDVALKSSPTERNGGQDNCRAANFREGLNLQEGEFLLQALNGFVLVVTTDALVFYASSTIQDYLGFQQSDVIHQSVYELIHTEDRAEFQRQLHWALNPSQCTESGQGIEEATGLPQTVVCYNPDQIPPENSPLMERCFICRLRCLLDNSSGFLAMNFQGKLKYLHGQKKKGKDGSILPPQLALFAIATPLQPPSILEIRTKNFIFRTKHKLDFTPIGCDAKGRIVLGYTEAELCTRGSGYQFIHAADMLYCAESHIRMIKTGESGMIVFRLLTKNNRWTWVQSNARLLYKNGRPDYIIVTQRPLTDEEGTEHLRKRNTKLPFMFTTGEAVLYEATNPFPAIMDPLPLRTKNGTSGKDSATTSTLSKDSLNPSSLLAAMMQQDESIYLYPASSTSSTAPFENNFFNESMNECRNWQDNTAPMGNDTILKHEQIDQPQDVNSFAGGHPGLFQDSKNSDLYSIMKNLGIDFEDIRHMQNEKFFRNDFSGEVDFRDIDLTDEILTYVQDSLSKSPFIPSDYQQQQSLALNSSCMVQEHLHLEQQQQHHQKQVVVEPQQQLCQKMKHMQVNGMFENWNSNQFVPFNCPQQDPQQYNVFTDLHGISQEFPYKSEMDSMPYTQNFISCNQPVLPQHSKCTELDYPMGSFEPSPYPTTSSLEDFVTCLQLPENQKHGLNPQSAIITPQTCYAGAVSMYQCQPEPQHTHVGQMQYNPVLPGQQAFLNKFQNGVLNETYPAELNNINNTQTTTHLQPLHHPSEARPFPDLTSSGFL

[1] = tested on: male C57Bl/6J mice fed a Western diet

Row | SMILES | activation of human AhR (human AhR) | obesity, adiposity and liver steatosis [1]
1 | Cc1cc(C)c(C=C2C(=O)Nc3ccccc32)[nH]1 [SU5416, 3-(3,5-dimethyl-1H-pyrrol-2-ylmethylene)-1,3-dihydro-indole-2-one] | activates the human AhR with a potency approaching TCDD | 
2 | Cc1ccccc1N=Nc1ccc(NC(=O)c2ccnn2C)c(C)c1 [CH-223191] |  | significantly reduce obesity and adiposity and ameliorates liver steatosis
3 | O=c1cc(-c2ccccc2)oc2c1ccc1ccccc12 [α-naphthoflavone] |  | significantly reduce obesity and adiposity and ameliorates liver steatosis
